Literature values in article PMC8538057, “Direct Delivery of ANA-TA9, a Peptide Capable of Aβ Hydrolysis, to the Brain by Intranasal Administration” (Pharmaceutics, 2021).

What was measured:
[1] = system: normal and cognitively impaired rats; settings: i.n. administration; cited from earlier work
Excerpt: (§1) Nasal drug administration has several advantages over oral or i.v. administration, which include noninvasiveness, self-administration, short onset of action, and higher bioavailability due to the avoidance of hepatic first-pass metabolism. Therefore, interest has grown in i.n. drug administration as a route for the application of drugs, particularly peptides, for systemic delivery. In addition to the above advantages, active pharmaceutical ingredients applied to the nasal cavity can undergo not only systemic absorption but, also, direct delivery to the brain [33, 34, 35, 36]. The brain up ...

[2] = system: aged mice; settings: i.n. administration; cited from earlier work
Excerpt: as §1

[3] = system: Aβ42; settings: also three Aβ fragment peptides, particularly Aβ11–29; cited from earlier work
Excerpt: Recently, we reported the proteolytic activity of the shorter synthetic peptides JAL-TA9 (YKGSGFRMI) and ANA-TA9 (SKGQAYRMI), derived from the Box A region of the Tob1 and ANA/BTG3 proteins. These peptides cleave Aβ42 and three Aβ fragment peptides, particularly Aβ11–29 originating from the central region, which is considered the core region of Aβ42 aggregation/oligomerization. We gave these peptides the general name Catalytide. Catalytides such as JAL-TA9 and ANA-TA9 are attractive candidate peptide drugs for a novel strategy for preventing and treating AD.

Row | Sequence | effect on memory function [1] | effect on anxiety [2] | cleavage of Aβ42 (proteolytic activity) [3]
1 | NAPVSIPQ | improves memory function | decreases anxiety | 
2 | YKGSGFRMI [JAL-TA9, Catalytide (catalytic peptide) … derived from the Box A region of Tob1 protein, cleaves Aβ42] |  |  | cleave Aβ42
